Assay results as given in PubChem BioAssay AID250 (DTP/NCI, 2004).
Where “and” joins values, the source holds several entries; their conditions need not be identical. Identical values can stand only once. Toxic doses and inconclusive results are not listed.

Experiments:
[1] = tested on: BDF1 mice, L1210 leukemia sc, survival T/C; experiment: NCI In Vivo Anticancer Drug Screen. Data for tumor model L1210 Leukemia (subcutaneous) in B6D2F1 (BDF1) mice; settings: endpoint: median survival time, higher = longer survival
Summary of the method: (§1)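 Transplantable tumor-bearing mice; survival or tumor size recorded; result = T/C, treated vs vehicle control.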

[2] = tested on: BDF1 mice, L1210 leukemia sc; experiment: as above; settings: endpoint: mean tumor weight, vehicle: water, higher = larger tumour
Summary of the method: as §1

[3] = dose: 14.0 mg/kg/injection, schedule: Q01DX Z (sc), vehicle: saline
[4] = dose: 23.0 mg/kg/injection, schedule: Q01DX Z (sc), vehicle: saline
[5] = dose: 65.0 mg/kg/injection, schedule: Q01DX Z (sc), vehicle: saline

## O=C(NO)c1ccncc1
[1]; dose: 67.0 mg/kg/injection, schedule: Q#B X027 (ip), vehicle: water
  T/C: 108 % of control
[1]; dose: 133.0 mg/kg/injection, schedule: Q#B X027 (ip), vehicle: water
  T/C: 108 % of control
[1]; dose: 200.0 mg/kg/injection, schedule: Q01DX009 (ip), vehicle: water
  T/C: 108 % of control
[1]; dose: 200.0 mg/kg/injection, schedule: Q#B X027 (ip), vehicle: water
  T/C: 116 % of control
[1]; dose: 267.0 mg/kg/injection, schedule: Q#B X027 (ip), vehicle: water
  T/C: 108 % of control
[2]; dose: 67.0 mg/kg/injection, schedule: Q#B X027 (ip)
  T/C: 68 % of control
[2]; dose: 133.0 mg/kg/injection, schedule: Q#B X027 (ip)
  T/C: 58 % of control
[2]; dose: 200.0 mg/kg/injection, schedule: Q01DX009 (ip)
  T/C: 60 % of control
[2]; dose: 200.0 mg/kg/injection, schedule: Q#B X027 (ip)
  T/C: 57 % of control
[2]; dose: 267.0 mg/kg/injection, schedule: Q#B X027 (ip)
  T/C: 41 % of control

## N[C@H](C(=O)O)[C@@H]1CC(Cl)=NO1
[1]; dose: 1.0 mg/kg/injection, schedule: Q01DX009 (sc), vehicle: saline
  T/C: 113 % of control
[1]; dose: 2.0 mg/kg/injection, schedule: Q01DX009 (sc), vehicle: saline
  T/C: 150 % of control
[1]; dose: 4.0 mg/kg/injection, schedule: Q01DX009 (sc), vehicle: saline
  T/C: 159 % of control
[1]; dose: 8.0 mg/kg/injection, schedule: Q01DX009 (sc), vehicle: saline
  T/C: 151 % of control and 172 % of control
[1]; dose: 16.0 mg/kg/injection, schedule: Q01DX009 (sc), vehicle: saline
  T/C: 162 % of control
[1]; dose: 32.0 mg/kg/injection, schedule: Q01DX009 (sc), vehicle: saline
  T/C: 159 % of control
[1]; dose: 64.0 mg/kg/injection, schedule: Q01DX009 (sc), vehicle: saline
  T/C: 154 % of control

## O=C(Nc1ccc(C2=NCCN2)cc1)c1ccc(C(=O)Nc2ccc(C3=NCCN3)cc2)c([N+](=O)[O-])c1
[1]; dose: 3.0 mg/kg/injection, schedule: Q01DX Z (sc), vehicle: saline
  T/C: 100 % of control
[1]; dose: 5.0 mg/kg/injection, schedule: Q01DX Z (sc), vehicle: saline
  T/C: 109 % of control
[1]; dose: 8.4 mg/kg/injection, schedule: Q01DX Z (sc), vehicle: saline
  T/C: 104 % of control and 109 % of control
[1]; [3]
  T/C: 104 % of control
[1]; dose: 23.0 mg/kg/injection, schedule: Q01DX Z (ip), vehicle: water
  T/C: 100 % of control
[1]; [4]
  T/C: 118 % of control
[1]; dose: 23.0 mg/kg/injection, schedule: Q01DX Z (sc), vehicle: water
  T/C: 100 % of control
[1]; dose: 39.0 mg/kg/injection, schedule: Q01DX Z (ip), vehicle: water
  T/C: 160 % of control
[1]; dose: 39.0 mg/kg/injection, schedule: Q01DX Z (sc), vehicle: water
  T/C: 115 % of control
[1]; dose: 65.0 mg/kg/injection, schedule: Q01DX Z (ip), vehicle: water
  T/C: 180 % of control
[1]; [5]
  T/C: 114 % of control and 209 % of control

## N[C@@H](Cc1ccc(N(CCCl)CCCl)cc1)C(=O)O
[1]; dose: 0.65 mg/kg/injection, schedule: Q01DX Z (sc), vehicle: water
  T/C: 100 % of control
[1]; dose: 1.09 mg/kg/injection, schedule: Q01DX Z (sc), vehicle: water
  T/C: 100 % of control
[1]; dose: 1.81 mg/kg/injection, schedule: Q01DX Z (sc), vehicle: water
  T/C: 95 % of control
[1]; dose: 3.02 mg/kg/injection, schedule: Q01DX Z (sc), vehicle: water
  T/C: 100 % of control
[1]; dose: 5.04 mg/kg/injection, schedule: Q01DX Z (sc), vehicle: water
  T/C: 104 % of control
[1]; dose: 8.4 mg/kg/injection, schedule: Q01DX Z (sc), vehicle: water
  T/C: 100 % of control
[1]; [3]
  T/C: 114 % of control
[1]; dose: 14.0 mg/kg/injection, schedule: Q01DX Z (sc), vehicle: water
  T/C: 109 % of control
[1]; [4]
  T/C: 123 % of control
[1]; dose: 23.3 mg/kg/injection, schedule: Q01DX Z (sc), vehicle: water
  T/C: 109 % of control
[1]; dose: 38.9 mg/kg/injection, schedule: Q01DX Z (sc), vehicle: water
  T/C: 118 % of control
[1]; dose: 39.0 mg/kg/injection, schedule: Q01DX Z (sc), vehicle: saline
  T/C: 104 % of control
[1]; [5]
  T/C: 104 % of control
